Entries after “also recorded” stand apart in the source; their conditions may differ.
Key:
Assay type in all cases: in vivo, mouse
[1] = system: neurotensin receptor 2 (Ntsr2); experiment: Quantitative RT-PCR / microarray of Ntsr2 mRNA in brain areas of treated WT and CRF-OE mice; conditions: 10 mg/kg, 2 times per day for 5 days, 16 hrs after last treatment
Procedure: (§1) Animal housing and treatment—Male transgenic CRF overexpressing C57BL/6J mice (CRF-OE or TG) and their wild-type littermates (WT) were maintained in an specific pathogen free facility that meets all national and European requirements for animal care. Mice were housed individually 4 weeks before the start of the experiment in a climate-controlled animal colony with a 12 h dark-light cycle (light on 7:00 EST) with free access to food and water. Prior to treatment 3 month old mice were randomized over three groups each comprising 4 wild-type and 4 transgenic animals. One group received no treatment, a second group received vehicle injection 5 days, 2 times per day (10% cyclodextran (CD), pH4) and a third group received 10 mg/kg of a CRH-R1 specific antagonist R121919 in 10% CD following the same regime. 16 hrs after last treatment animals were sacrificed for dissection of brain areas and subsequent isolation of RNA. […]
Microarray hybridization—cRNA was prepared as follows. […] Subsequently arrays were scanned with a HP-Laserscanner and data were analyzed with the Microarray Suite Software (Affymetrix). […] Quality of the experiment was assessed based on the percentages present calls (see table).
Quantitative RT-PCR—Microarray data were confirmed using real time PCR analysis. […] Quantitative PCR was performed on a ABIPrism 7700 cycler (Applied Biosystems) using a Taqman PCR kit. […]

[2] = system: neurotensin receptor 1 (Ntsr1); experiment: Quantitative RT-PCR of Ntsr1 mRNA in brain areas of treated WT and CRF-OE mice; conditions: 10 mg/kg, 2 times per day for 5 days, 16 hrs after last treatment, hippocampus
Procedure: as §1
Quantitative RT-PCR—Microarray data were confirmed using real time PCR analysis. […] Quantitative PCR was performed on a ABIPrism 7700 cycler (Applied Biosystems) using a Taqman PCR kit. […] A linear regression line calculated from the standard curves allowed the determination of transcript levels in RNA samples from the different treatment groups at each brain area.

all NTS-sites (Nts1-3) = experiment: [125I]NT binding, quantitative autoradiography on brain sections of treated mice; conditions: subchronic administration
Procedure: FIG. 6: [^125I]NT binding (0.1 nM, 30 min, RT) to all NTS-sites determined via quantitative autoradiography on frozen glass-mounted brain tissue sections. Data are represented as the average IOD±SEM of three animals determined on at least three different Bregma sections each.
Animal housing and treatment—Male transgenic CRF overexpressing C57BL/6J mice (CRF-OE or TG) and their wild-type littermates (WT) were maintained in an specific pathogen free facility that meets all national and European requirements for animal care. Mice were housed individually 4 weeks before the start of the experiment in a climate-controlled animal colony with a 12 h dark-light cycle (light on 7:00 EST) with free access to food and water. Prior to treatment 3 month old mice were randomized over three groups each comprising 4 wild-type and 4 transgenic animals. One group received no treatment, a second group received vehicle injection 5 days, 2 times per day (10% cyclodextran (CD), pH4) and a third group received 10 mg/kg of a CRH-R1 specific antagonist R121919 in 10% CD following the same regime. 16 hrs after last treatment animals were sacrificed for dissection of brain areas and subsequent isolation of RNA.
Autoradiography—[^125 I]Neurotensin binding and film radiographs on brains of adult male transgenic C57BU6J mice and their wild-type littermates, was performed as described previously by Moyse et al. (12). […] Incubating additional sections in the presence of 1 μM native neurotensin assessed the non-specific staining. […] On each section structures were delineated interactively and pixel gray levels were measured in the outlined areas. The pixel gray levels were converted to radioactivity per mg of tissue using the co-exposed ^125I-standards and averaged over the measured area. Data were analyzed statistically by a two-way ANOVA and concomitant Bonferroni's Post-hoc test using SPSS 11.0 software.

[3] = system: gene expression profiles in brain areas of CRH overexpressing mice; experiment: Microarray gene expression profiles of brain areas (spectral map analysis, SAM)
Procedure: Animal housing and treatment—Male transgenic CRF overexpressing C57BL/6J mice (CRF-OE or TG) and their wild-type littermates (WT) were maintained in an specific pathogen free facility that meets all national and European requirements for animal care. Mice were housed individually 4 weeks before the start of the experiment in a climate-controlled animal colony with a 12 h dark-light cycle (light on 7:00 EST) with free access to food and water. Prior to treatment 3 month old mice were randomized over three groups each comprising 4 wild-type and 4 transgenic animals. […]
Microarray hybridization—cRNA was prepared as follows. […] Subsequently arrays were scanned with a HP-Laserscanner and data were analyzed with the Microarray Suite Software (Affymetrix). […] Quality of the experiment was assessed based on the percentages present calls (see table). […]
Basically this alignment sets the average intensity of one array to the average measured this normalization compensates for array to array variations in hybridization, washing and staining, ultimately allowing a reasonable comparison between arrays. After normalization, data were analyzed using weighted spectral mapping analysis (SMA) (7). […]

CCCN(CCC)c1cc(C)nc2c(-c3cnc(N(C)C)cc3C)c(C)nn12 [R121919]
Upregulation of Ntsr2 mRNA expression in vehicle treated animals (repeated injection stress) [1]: abolished; also recorded: counteracted
Upregulation of Ntsr1 mRNA expression in vehicle treated animals (repeated injection stress) [2]: abolished; also recorded: counteracted
Downregulation of [125I]NT binding at total NT binding level (all NTS-sites (Nts1-3); CRF-OE mice): counteracted the downregulation
[125I]NT binding capacity compared to vehicle treated animals (all NTS-sites (Nts1-3); stratum radiatum bordering CA1-CA2 region, both WT and CRF-OE animals, p=0.057): upward trend
Level of [125I]NT binding in treated CRF-OE animals versus untreated animals (all NTS-sites (Nts1-3); stratum radiatum, CRF-OE mice): equaled the level measured in untreated WT-animals; also recorded: equaled that in untreated animals
Changes in gene expression profile of CRH overexpressing (Tg) versus WT animals ([3]; 5 day treatment, all studied brain areas, exemplified by pituitary spectral map, listed as CRH-R1 antagonist): not affected (or only to a limited degree); also recorded: does not lead to a general ‘normalization’
Effect on expression levels at the pituitary level ([3]; transgenic animals, pituitary): some effect of the compound is measured

Reference: patent US20060188879A1, “Crh responsive genes in cns” (Janssen Pharmaceutica N.V., priority 2002, published 2006)
